Assay results published in US20190105381A1, “METHOD FOR PREPARING VIRAL PARTICLES WITH CYCLIC DINUCLEOTIDE AND USE OF SAID PARTICLES FOR TREATING CANCER” (priority 2016, published 2019).

Tests used:
[1] = tested on: Ova-specific CD8+ T cells; assay: CD8+ T cell responses after subcutaneous immunization (tetramer, IFN-g ELISPOT); assay type: in vivo, mice; conditions: cGAMP at a far higher dose of cGAMP
[2] = tested on: IFNβ promoter reporter (p125-F-Luc); assay type: cell-based, human; conditions: HEK293 cells transfected with 2 μg 2′-3′-cGAMP, 24 hours
[3] = tested on: HEK293 cells; assay type: cell-based, human; conditions: for effect on IFN induction by HIV-1-GFP: cGAS-reconstituted producer cells treated during virus preparation, 20 μM GW4869, 60 μM Ac-DEVD-CHO; for IFN response in target cells under pharmacological inhibition: cells treated 1 hour prior to infection, 5 μM, MOI=1

Row | Compound | effect on IFN induction by HIV-1-GFP [3] | IFN response in target cells under pharmacological inhibition [3] | other results
1 | Nc1nc2c(ncn2[C@@H]2O[C@@H]3COP(=O)(O)O[C@H]4[C@@H](O)[C@H](n5cnc6c(N)ncnc65)O[C@@H]4COP(=O)(O)O[C@@H]2[C@@H]3O)c(=O)[nH]1 [cGAMP, 2′-3′-cyclic GMP-AMP] |  |  | tumor-specific T cell response [1]: not able to significantly induce; IFN induction in response to cGAMP [2]: induce IFN
2 | Ac-DEVD-CHO | did not diminish IFN induction |  | 
3 | Cc1nnc(C(=O)NC(C)(C)c2nc(C(=O)NCc3ccc(F)cc3)c(O)c(=O)n2C)o1 [raltegravir] |  | independent of reverse transcription and integration | 
4 | O=C(/C=C/c1ccc(/C=C/C(=O)Nc2ccc(C3=NCCN3)cc2)cc1)Nc1ccc(C2=NCCN2)cc1 [GW4869] | did not diminish IFN induction |  | 
5 | Cc1ccnc2c1NC(=O)c1cccnc1N2C1CC1 [nevirapine] |  | independent of reverse transcription and integration | 
